Measured values reported in patent US7192932B1, “Use of immunomodulating agents” (Lauras AS, priority 1997, dated 2007).

Legend:
[1] = tested on: peripheral blood CD3+ T cells; test: TCR/CD3 stimulated proliferation of liposome-transfected CD3+ T cells treated with 8-CPT-cAMP; format: cell-based, human; details: for Effect of peptide on cAMP dependent inhibition of T cell proliferation: increasing concentrations (25 to 100 μM), 8-CPT-cAMP 6.25 μM, FIG. 9
Procedure: FIG. 8. Reversal of cAMP-mediated inhibition of TUR/CD3 stimulated T cell proliferation by the use of ribozyme to the RIα subunit of protein kinase A type I. TCR/CD3 stimulated proliferation of peripheral blood CD3+ T cells from normal healthy blood donor following treatment with liposomes alone (mock) or with liposomes and RIα ribozyme (RIα rbz, 10 μM) in the absence (solid bars) and presence (open bars) of 8-CPT-cAMP (12,5 μM).
FIG. 9. Reversal of cAMP-mediated inhibition of TCR/CD3 stimulated T cell proliferation by the use of competitor peptide to compete the TCR/CD3 associated anchoring of RIα subunit of protein kinase A type I in T cells. TCR/CD3 stimulated proliferation of peripheral blood CD3+ T cells from normal healthy blood donor following treatment with liposomes alone (mock) or with increasing concentrations (25 to 100 μM) of a competitor peptide (Ht-31) that competes anchoring, to PKA type II or a control peptide (Ht31-P).
FIG. 10. TCR/CD3 stimulated proliferation of peripheral blood CD3+ T cells in the presence of increasing, concentrations of 8-CPT-cAMP. Normalized levels of proliferation of T cells mock transfected with liposomes only (solid circles, continuous line) or incubated with liposomes and Ht31 peptide (35 μM) to compete anchoring of protein kinase A type I (open circles, dotted line) was assessed as [^3H]-thymidine incorporation after 48 h during which [^3H]-thymidine was added for the last 18 h. Note: right shift of the IC50 (arrow) from 1,8 to 4,8 μM in the presence of […].
When transfected as synthetic RNA ribozyme or as a synthetic RNA ribozyme stabilized by incorporation of 2-deoxycytosine and 2-deoxy-uracil analogs into peripheral blood CD3+ T cells, the ribozyme reduced levels of RIα protein to approximately 20% of control levels by removing the RIα mRNA. By this strategy, the majority of protein kinase A type 1 was removed from the T cells. We then assessed the immune responsiveness of CD3+ T cells transfected with ribozyme compared to control (mock) transfected T cells measured as T cell proliferation after activation of T cells by stimulation of the T cell receptor/CD3 complex (TCR/CD3). In order to simulate a T cell dysfunction as that of HIV infection, with elevated levels of cAMP and increased activation of protein kinase A type 1, we treated normal T cells with low dose (12.5 around IC50) of the cAMP analog 8-(4-chlorophenyl)-thio-cAMPS (8-CPT-cAMP). […] For in vivo use pretreatment of ribozymes to allow cellular uptake or introduction into cells as minigenes will be necessary.
We incubated blood CD3+ T cells with increasing concentrations of Ht31 (SEQ. ID. NO 2) peptide. In order to facilitate uptake, cells were treated with liposomes in the presence or absence of-peptide. The optimal concentrations of DOTAP liposomes and anti-CD3 antibody were titrated carefully in order to maintain the membrane stability and normal TCR/CD3-dependent activation of the T cells. Cells were incubated for 20 hours with DOTAP/peptide and incubations continued in the absence (solid bars) or presence of 8-CPT-cAMP (6.25 μM, hatched bars) and activated to proliferation by stimulation of TCR/CD3 T cell immune responsiveness was assessed as [3H]thymidine incorporation.
Next, the effect of the competitor peptide (Ht-31, 35 μM) on T cell proliferation was examined in the presence of increasing concentrations of 8-CPT-cAMP and compared to mock transfected cells treated with the same concentrations of 8-CPT-cAMP (FIG. 10). As shown previously for normal peripheral blood T cells. […] Compared to the left-shifted curves observed with T cells from HIV-infected patients or patients with CIV due to elevated levels of endogenous cAMP activating PKA type 1, the right-shift observed here would be expected to normalize the situation in patients.

[2] = tested on: peripheral blood CD3+ T cells; test: TCR/CD3 (anti-CD3) stimulated T cell proliferation, [3H]-thymidine incorporation; format: cell-based, human; details: T cells from normal blood donors, FIG. 3A
Procedure: (§1) Human peripheral blood CD3+ T cells were purified by negative selection from 50 ml of heparin-treated blood from normal healthy donors (Ullevaal University Hospital Blood Center, Oslo. Norway) or patients. Briefly, peripheral blood mononuclear cells were isolated by density gradient (Lymphoprep, NycoMed, Oslo, Norway) centrifugation followed by negative selection using monodisperse magnetic beads directly coated with antibodies to CD14 and CD19 and rat anti-mouse IgG beads coated with antibodies to CD56 and a magnet. Magnetic beads were all from Dynal (Oslo, Norway, cat. no. 111.12, 111.04, and 110.11. respectively) whereas anti-CD56 antibody was from Pharmingen (San Diego, Calif., cat. no. 31660.d). All steps were performed at 4° C.
as §1, with “Peripheral blood” for “Human peripheral blood”, “Center, Oslo,” for “Center, Oslo.”, “selection using,” for “selection using”, “and 110.11,” for “and 110.11.”, “Calif., eat.” for “Calif., cat.”
Proliferation assays were performed by incubation of 0.75×10^6 CM+ T cells/ml in a 100 μl volume in that-bottom 96-well microtiter plates. Activation was achieved by subsequent addition of monodisperse magnetic beads coated with sheep anti-mouse IgG (Dynal. cat. no. 110.02) at a cell:bead ratio of 1:1 followed by addition of antiCD3 (clone SpvT3b) at a final dilution of 1:125,000 for the experiments shown. The optimal concentration of antibody was titrated carefully in the initial setup and parallel experiments at several different dilutions of antibody was always performed. Proliferation was analyzed by incubating, cells for 72 hours during which [^3H]thymidine was included for the last 16 hours. Cells were washed and harvested onto filters using a Scatron harvester (Suffolk, UK) and subsequently analyzed by β-scintillation counting. cAMP analogs, when used, were added 30 min prior to activation by addition of […] antibodies. 8-CPT-cAMP was from Sigorna (St. Louis, Mo.) and Sp- and Rp-8-Br-cAMPS were from BioLog Life Science Company (Bremen, Germany) and were all dissolved to concentrations of 4 to 10 mM in PBS and concentrations calculated using the extinction coefficients given by the manufacturer.

PKAII isozymes = details: cited from earlier work
PKAI isozymes = details: cited from earlier work
PBMC = details: cited from earlier work
[3] = target: RIα subunit of cAMP-dependent protein kinase A type I (human, UniProt P10644 1-381); test: cell-based or functional assay
Chain of RIα subunit of cAMP-dependent protein kinase A type I (P10644 whole entry): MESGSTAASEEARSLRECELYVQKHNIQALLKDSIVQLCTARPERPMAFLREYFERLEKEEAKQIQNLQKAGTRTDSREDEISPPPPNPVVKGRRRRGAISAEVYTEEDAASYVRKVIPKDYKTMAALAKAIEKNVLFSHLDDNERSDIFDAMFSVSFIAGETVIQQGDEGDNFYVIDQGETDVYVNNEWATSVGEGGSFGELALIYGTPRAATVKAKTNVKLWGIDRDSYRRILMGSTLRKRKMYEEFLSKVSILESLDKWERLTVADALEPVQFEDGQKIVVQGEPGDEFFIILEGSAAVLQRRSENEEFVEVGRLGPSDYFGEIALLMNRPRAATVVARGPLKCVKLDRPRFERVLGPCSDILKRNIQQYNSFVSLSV

## H2N-Asp-Leu-Ile-Glu-Glu-Ala-Ala-Ser-Arg-Ile-Val-Asp-Ala-Val-Ile-Glu-Gln-Val-Lys-Ala-Ala-Gly-Ala-Tyr-COOH (H-DLIEEAASRIVDAVIEQVKAAGAY-OH) [Ht31]
[1]; 35 μM peptide, FIG. 10
  Effect of peptide on 8-CPT-cAMP inhibition curve: right-shifted inhibition curve
[1]
  Effect of peptide on cAMP dependent inhibition of T cell proliferation: reduced sensitivity to cAMP
[1]; listed as Ht-31
  Effect of peptide on cAMP dependent inhibition of T cell proliferation: reversed the cAMP dependent inhibition

## Nc1ncnc2c1nc(Br)n2[C@@H]1O[C@@H]2COP(O)(=S)O[C@@H]2C1O (some centres unmarked) [Sp-8-Br-cAMPS, Sp-8-Bromo-cAMP-phosphorothioate, reference compound]
[2]
  Effect of cAMP agonist on TCR/CD3-stimulated proliferation: inhibited

## Nc1ncnc2c1ncn2[C@@H]1O[C@@H]2CO[P@@](O)(=S)O[C@H]2[C@H]1O [Rp-cAMPS, Rp-cAMP-phosphorothioate]
PKAII isozymes
  Mode of action on PKAII isozymes: partial agonist
PKAI isozymes
  Mode of action on PKAI isozymes: full antagonist

## C[C@H]1O[C@@H](n2cnc3c(N)ncnc32)C[C@@H]1O [ddAdo, 2′,5′ dideoxyadenosine]
PBMC; PBMC
  Effect on cell proliferation: increased the cell proliferation
  Effect on cellular cAMP levels: reduced cellular cAMP levels
PBMC; higher concentrations suppressive or without further effect
  Effective concentrations: ~6 ng/mL

B1: Ht31 competitor peptide (amino acids 493-515 of the A-kinase anchoring protein (AKAP) Ht31) (peptide)
peptide: H-DLIEEAASRIVDAVIEQVKAAGAY-OH
[3]
  IC50 of 8-CPT-cAMP for inhibition of TCR/CD3 stimulated T cell proliferation with Ht-31 (35 µM); mock transfected cells had an IC50 around 1.8 µM: 4.8 µM
  TCR/CD3 stimulated proliferation of CD3+ T cells ([3H]thymidine incorporation) in the presence of 8-CPT-cAMP (6.25 µM), peptide delivered with DOTAP liposomes: 3 fold
